Like-named read-outs stand apart in the source and are kept apart here. Non-standard residues stand in square brackets, D forms with d. Residues, ends and D or L forms follow the SMILES beside them.
How the values were obtained:
ETB = ETB radio receptor assay *2, 125I-endothelin-1, guinea pig kidney crude membrane fraction; type: binding, Guinea pigs; settings: relative activity, 37 °C, 90 minutes
Method in brief: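 Radioligand binding used crude guinea pig kidney membranes (2.1 µg protein) with 740 Bq 125I-endothelin-1. Incubation was 90 min at 37 °C in 50 mM Tris-HCl pH 7.4, 0.1 mM PMSF, 1 mM EDTA, 0.2% BSA. Bound radioactivity was collected by GF/B filtration and measured by gamma counting.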

NK2 receptor = biological target: T1, NK2 receptor (Bos taurus, UniProt P05363); assay: Assay of affinity for receptor (3): binding inhibiting activity on NK2 receptor, 125I-neurokinin A, membrane fraction of bovine third stomach inner wall; settings: 125I-NKA, 25°C, 3 hours
T1 construct: The membrane fraction containing the receptor was prepared from the inner wall of the bovine third stomach; tissue Kyoto Chuo Chikusan Fukuseibutsu Oroshi Kyoukai (tissue); host or cells: inner wall of bovine third stomach, membrane fraction
T1 sequence (P05363 1-384): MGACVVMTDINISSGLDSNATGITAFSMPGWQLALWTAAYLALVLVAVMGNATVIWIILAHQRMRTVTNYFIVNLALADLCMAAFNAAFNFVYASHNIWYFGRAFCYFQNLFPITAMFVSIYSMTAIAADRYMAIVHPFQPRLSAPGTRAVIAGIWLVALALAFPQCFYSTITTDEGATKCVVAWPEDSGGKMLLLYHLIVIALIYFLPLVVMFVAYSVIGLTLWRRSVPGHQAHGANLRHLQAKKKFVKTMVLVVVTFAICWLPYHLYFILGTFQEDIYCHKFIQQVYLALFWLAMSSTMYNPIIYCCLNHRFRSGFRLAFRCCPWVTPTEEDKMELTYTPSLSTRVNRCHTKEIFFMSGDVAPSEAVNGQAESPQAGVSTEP
Experimental: Assay of Affinity for Receptor (3) ... Binding Inhibiting Activity on NK2 Receptor
The method of Paul L. M. Van Giersbergen et al. [Proc. Natl. Acad. Sci. U.S.A., 88, 1661 (1991) was modified for this assay. The membrane fraction containing the receptor was prepared from the inner wall of the bovine third stomach (purchased from Kyoto Chuo Chikusan Fukuseibutsu Oroshi Kyoukai).
The inner wall of the bovine third stomach stored at-80°C was cut to 1 cm X 1 cm or less, and disrupted in 3 liters/kg of 50 mM Tris-HCl buffer (pH 7.4) supplemented with 120 mM sodium chloride, 5 mM potassium chloride, 0.02% BSA and 5% sucrose, using a polytron homogenizer (Kinematika, Germany). Then, the disrupted product was centrifuged at 1,000 X g for 10 minutes. The supernatant was further centrifuged at 45,000 X g for 20 minutes. The precipitate was suspended in 200 ml of 50 mM Tris-HCl buffer (pH 7.4) supplemented with 300 mM potassium chloride, 10 mM ethylenediaminetetraacetic acid, 0.1 mM phenylmethylsulfonium fluoride and 0.02% BSA, and gently stirred under ice cooling for 60 minutes. The suspension was centrifuged at 45,000 X g for 20 minutes. The precipitate was washed with 200 ml of 50 mM Tris-HCl buffer (pH 7.4), and stored in the frozen state at -40°C as a receptor sample.
This sample was suspended in a reaction buffer solution [50 mM Tris-HCl buffer (pH 7.4), 0.02% bovine serum albumin and 4 mM manganese chloride] so as to give a protein concentration of 0.7 mg/ml, and 100 µl thereof was used for reaction. A test sample and ^125I-NKA (0.61 KBq, ^125I-neurokinin A, 81.4 TBq/mmol, Du Pont/NEN Research Products, U.S.A.) were also added, and reacted in 0.2 ml of the reaction buffer solution at 25°C for 3 hours. The reaction mixture was rapidly filtered through a glass filter (GF/B, Whatman, U.S.A.) using a cell harvester (Type 290PHD, Cambridge Technology Inc.) to terminate the reaction, and washed 3 times with 250 µl of 50 mM Tris-HCl buffer (pH 7.4) supplemented with 0.02% bovine serum albumin. The radioactivity left on the filter was measured with a gamma-ray counter. Results are shown in Table 1 as the binding inhibiting activity (IC50, unit: µM) on the NK2 receptor.

[1] = biological target: T2, endothelin receptor A (ETA) (Sus scrofa, UniProt Q29010); assay: Assay of affinity for receptor (1): binding activity on ETA receptor, 125I-labeled endothelin-1, porcine heart membrane fraction; set-up: key: relative specific activity; reference cyclic pentapeptide ETA binding = 1.0; settings: specific activity, taking the binding activity of control cyclo[-D-Glu-Ala-D-aIle-Leu-D-Trp-] on receptor A as 1.0, 25°C, 1 hour
T2 construct: A membrane fraction prepared from the porcine heart; from tissue; host or cells: porcine heart membrane fraction
T2 sequence (Q29010 21-427): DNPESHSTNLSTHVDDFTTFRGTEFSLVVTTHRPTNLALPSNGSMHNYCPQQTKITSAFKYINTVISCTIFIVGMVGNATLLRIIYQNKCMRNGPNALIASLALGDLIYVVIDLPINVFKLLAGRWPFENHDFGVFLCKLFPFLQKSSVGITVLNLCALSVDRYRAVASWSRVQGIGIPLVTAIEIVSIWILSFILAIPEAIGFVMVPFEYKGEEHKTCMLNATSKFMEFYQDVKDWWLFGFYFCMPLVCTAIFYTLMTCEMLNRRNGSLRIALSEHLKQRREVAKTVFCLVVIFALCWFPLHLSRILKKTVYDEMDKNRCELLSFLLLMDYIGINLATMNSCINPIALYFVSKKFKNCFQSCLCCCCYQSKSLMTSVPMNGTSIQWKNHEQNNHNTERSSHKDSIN
Method in brief: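 Porcine heart membranes (0.15 mg/ml) incubated with 125I-endothelin-1 and test peptide for 1 h at 25°C, then centrifuged; pellet-bound radioactivity counted by gamma counter. Values given as specific activity relative to reference cyclo[-D-Glu-Ala-D-aIle-Leu-D-Trp-], set at 1.0.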

[2] = amide bond, DCC/HONB (active ester), TEA, DMF, 16.0 h, 4 steps
[3] = amide bond; 18-membered ring; HONB/DCC preactivation; HCl; DIEA; DMF; 4.75 mM; 3 steps
[4] = amide bond; 18-membered ring; HONB/DCC (preactivation); HCl/dioxane; TEA; DMF; 9.5 mM; 3 steps

Question: What does the source list for `CC(C)C[C@@H]1NC(=O)[C@H](CC(=O)O)NC(=O)[C@@H](CC(=O)O)NC(=O)[C@@H](Cc2c[nH]c3ccccc23)NC(=O)[C@H](CC(C)C)NC(=O)[C@@H](CC(C)C)NC1=O` [Example 32, Cyclo[-D-Asp-Asp-Leu-D-Leu-Leu-D-Trp-]] (cyclo(DL[dL]L[dW][dD]))?
Answer: Binding Activity on ET Receptor (R. act.) ETB*2 (ETB): 7.7; IC50 (NK2 receptor): 2600 nM; Binding Activity on ET Receptor (R. act.) ETA [1]: 4.0

Question: With `CC(C)C[C@@H]1NC(=O)[C@@H](CC(C)C)NC(=O)[C@H](Cc2c[nH]c3ccccc23)NC(=O)[C@H](CC(=O)O)NC(=O)[C@@H](CC(=O)O)NC(=O)[C@@H](Cc2c[nH]c3ccccc23)NC1=O` [Example 33, Cyclo[-D-Asp-Asp-Trp-D-Leu-Leu-D-Trp-]] (cyclo(DW[dL]L[dW][dD])) as the compound, how does the “Binding Activity on ET Receptor (R. act.) ETB*2” value (ETB) read?
Answer: 5.6

Question: And the IC50 (NK2 receptor)?
Answer: 350 nM

Question: And the “Binding Activity on ET Receptor (R. act.) ETA” value [1]?
Answer: 2.9

Question: For `CC(C)C[C@@H]1NC(=O)[C@@H](c2cccs2)NC(=O)[C@H](CC(=O)O)NC(=O)[C@H](CCC(=O)NCc2ccccc2)NC(=O)[C@@H](CC(=O)O)NC(=O)[C@@H](Cc2c[nH]c3ccccc23)NC1=O` [cyclo[-D-Asp-Gln(Bzl)-Asp-D-Thg(2)-Leu-D-Trp-]], which ring closure, yield of all isomers ([2]; from CC(C)C[C@H](NC(=O)[C@H](NC(=O)OC(C)(C)C)c1cccs1)C(=O)N[C@H](Cc1c[nH]c2ccccc12)C(=O)N[C@H](CC(=O)OCc1ccccc1)C(=O)N[C@@H](CCC(=O)NCc1ccccc1)C(=O)N[C@@H](CC(=O)OCc1ccccc1)C(=O)O, 5.06 mM) is on record?
Answer: 8.8%

Question: Which ring closure, yield of all isomers ([2]; from CC(C)C[C@H](NC(=O)[C@H](NC(=O)OC(C)(C)C)c1cccs1)C(=O)N[C@H](Cc1c[nH]c2ccccc12)C(=O)N[C@H](CC(=O)OCc1ccccc1)C(=O)N1C[C@H](OCc2ccccc2)C[C@H]1C(=O)N[C@@H](CC(=O)OCc1ccccc1)C(=O)O, 4.98 mM) does the source give for `CC(C)C[C@@H]1NC(=O)[C@@H](c2cccs2)NC(=O)[C@H](CC(=O)O)NC(=O)[C@@H]2C[C@@H](OCc3ccccc3)CN2C(=O)[C@@H](CC(=O)O)NC(=O)[C@@H](Cc2c[nH]c3ccccc23)NC1=O` [cyclo[-D-Asp-Hyp(Bzl)-Asp-D-Thg(2)-Leu-D-Trp-]] here?
Answer: 5.7%

Question: Which ring closure, yield of all isomers ([2]; from CC(C)C[C@H](NC(=O)[C@@H](CC(C)C)NC(=O)[C@H](CC(=O)OCc1ccccc1)NC(=O)[C@H](CCCNC(=O)c1ccccc1)NC(=O)OC(C)(C)C)C(=O)N[C@H](Cc1c[nH]c2ccccc12)C(=O)N[C@H](CC(=O)OCc1ccccc1)C(=O)O, 5.03 mM) does the source give for `CC(C)C[C@@H]1NC(=O)[C@@H](CC(C)C)NC(=O)[C@H](CC(=O)O)NC(=O)[C@H](CCCNC(=O)c2ccccc2)NC(=O)[C@@H](CC(=O)O)NC(=O)[C@@H](Cc2c[nH]c3ccccc23)NC1=O` [cyclo[-D-Asp-Orn(COPh)-Asp-D-Leu-Leu-D-Trp-]] here?
Answer: 48.1%

Question: Which ring closure, crude yield [3] does the source give for “cyclo[-D-Asp(OBzl)-Asn(NHCH2CH2Ind)-Asp(OBzl)-D-Thg(2)-Leu-D-Trp-]” here?
Answer: 90.4%

Question: Which ring closure, isolated yield [4] does the source give for “cyclo[-D-Asp(OBzl)-Hyp(Bzl)-Asp(OBzl)-D-Leu-Leu-D-Trp-]” here?
Answer: 82.6%
